Earlier results as cited in US20140212465A1, “TREATMENT AND PREVENTION OF DENTAL PATHOLOGY IN HUMANS AND NON-HUMAN ANIMALS” (priority 2011, published 2014).

Conditions: aqueous environment

## [Ca+2].[OH-].[OH-] [calcium hydroxide]
  pH: 12.5
